From patent publication US6486185B1, “3-heteroarylidene-2-indolinone protein kinase inhibitors” (Sugen, Inc., priority 1997, dated 2002)

Tests used:
PDGFR = PDGFR (Homo sapiens, UniProt P09619); assay: PDGF-R ELISA (cellular kinase assay); type: cell-based; details: 50% inhibition of PTK activity over control
Method: The cellular/catalytic assays described herein are performed in an ELISA format. The general procedure is a follows: a compound is introduced to cells expressing the test kinase, either naturally or recombinantly, for some period of time after which, if the test kinase is a receptor, a ligand known to activate the receptor's activity is added. The cells are lysed and the lysate is transferred to the wells of an ELISA plate previously coated with a specific antibody recognizing the substrate of the enzymatic phosphorylation reaction. Non-substrate components of the cell lysate are washed away and the amount of phosphorylation on the substrate is detected with an antibody specifically recognizing phosphotyrosine compared with control cells that were not contacted with a test compound.
All cell culture media, glutamine, and fetal bovine serum can be purchased from Gibco Life Technologies (Grand Island, N.Y.) unless otherwise specified. All cells are grown in a humid atmosphere of 90-95% air and 5-10% CO2 at 37° C. All cell lines are routinely subcultured twice a week and are negative for mycoplasma as determined by the Mycotect method (Gibco).
For ELISA assays, cells (U1242, obtained from Joseph Schlessinger, NYU) are grown to 80-90% confluency in growth medium (MEM with 10% FBS, NEAA, 1 mM NaPyr and 2 mM GLN) and seeded in 96-well tissue culture plates in 0.5% serum at 25,000 to 30,000 cells per well. After overnight incubation in 0.5% serum-containing medium, cells are changed to serum-free medium and treated with test compound for 2 hr in a 5% CO2, 37° C. incubator. Cells are then stimulated with ligand for 5-10 minute followed by lysis with HNTG (20 mM Hepes, 150 mM NaCl, 10% glycerol, 5 mM EDTA, 5 mM Na3VO4, 0.2% Triton X-100, and 2 mM NaPyr). Cell lysates (0.5 mg/well in PBS) are transferred to ELISA plates previously coated with receptor-specific antibody and which had been blocked with 5% milk in TBST (50 mM Tris-HCl pH 7.2, 150 mM NaCl and 0.1% Triton X-100) at room temperature for 30 min. Lysates are incubated with shaking for 1 hour at room temperature. The plates are washed with TBST four times and then incubated with polyclonal anti-phosphotyrosine antibody at room temperature for 30 minutes. Excess anti-phosphotyrosine antibody is removed by rinsing the plate with TBST four times. Goat anti-rabbit IgG antibody is added to the ELISA plate for 30 min at room temperature followed by rinsing with TBST four more times. ABTS (100 mM citric acid, 250 mM Na2HPO4 and 0.5 mg/mL 2,2′-azino-bis(3-ethylbenzthiazoline-6-sulfonic acid)) plus H2O2 (1.2 mL 30% H2O2 to 10 mL ABTS) is added to the ELISA plates to start color development. Absorbance at 410 nm with a reference wavelength of 630 nm is recorded about 15 to 30 min after ABTS addition.

HER2 Kinase = HER2 Kinase (Homo sapiens, UniProt P04626); assay: HER-2 ELISA: EGF receptor-HER2 chimeric receptor assay in whole cells; type: cell-based; details: 50% inhibition of PTK activity over control
Sequence of HER2 Kinase (P00533 25-645): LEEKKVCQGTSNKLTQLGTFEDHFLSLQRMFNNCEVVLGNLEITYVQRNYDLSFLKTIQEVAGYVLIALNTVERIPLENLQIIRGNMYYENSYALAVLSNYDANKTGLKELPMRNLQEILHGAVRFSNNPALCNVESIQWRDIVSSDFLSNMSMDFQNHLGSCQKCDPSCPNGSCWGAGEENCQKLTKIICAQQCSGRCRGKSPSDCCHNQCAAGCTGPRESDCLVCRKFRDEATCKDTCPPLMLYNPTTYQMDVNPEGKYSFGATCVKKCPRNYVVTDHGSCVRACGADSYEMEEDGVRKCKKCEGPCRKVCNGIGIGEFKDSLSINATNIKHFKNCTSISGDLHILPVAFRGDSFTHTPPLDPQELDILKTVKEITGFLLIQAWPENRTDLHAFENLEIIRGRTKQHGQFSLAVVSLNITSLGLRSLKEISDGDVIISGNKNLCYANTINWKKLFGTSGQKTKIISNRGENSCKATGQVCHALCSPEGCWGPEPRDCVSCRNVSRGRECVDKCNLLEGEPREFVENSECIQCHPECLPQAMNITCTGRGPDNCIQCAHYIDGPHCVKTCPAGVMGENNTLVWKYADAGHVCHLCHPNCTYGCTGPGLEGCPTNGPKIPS
Sequence of HER2 Kinase (P04626 676-1255): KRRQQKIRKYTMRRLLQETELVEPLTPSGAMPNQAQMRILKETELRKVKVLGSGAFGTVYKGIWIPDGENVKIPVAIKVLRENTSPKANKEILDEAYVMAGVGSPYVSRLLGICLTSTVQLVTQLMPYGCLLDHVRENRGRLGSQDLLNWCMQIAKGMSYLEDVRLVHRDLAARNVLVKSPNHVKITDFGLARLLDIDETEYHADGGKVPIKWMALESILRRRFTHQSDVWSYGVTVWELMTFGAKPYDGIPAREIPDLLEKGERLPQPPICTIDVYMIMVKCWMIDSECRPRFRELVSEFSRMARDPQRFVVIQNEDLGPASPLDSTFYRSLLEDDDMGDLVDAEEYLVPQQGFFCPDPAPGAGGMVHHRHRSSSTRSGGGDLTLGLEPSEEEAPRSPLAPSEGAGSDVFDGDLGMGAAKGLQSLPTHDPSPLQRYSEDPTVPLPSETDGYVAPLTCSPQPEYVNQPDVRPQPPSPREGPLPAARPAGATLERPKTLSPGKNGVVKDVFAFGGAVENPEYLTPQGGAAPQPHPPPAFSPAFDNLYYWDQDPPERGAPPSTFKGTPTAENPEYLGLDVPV
Method: The cellular/catalytic assays described herein are performed in an ELISA format. […] The cells are lysed and the lysate is transferred to the wells of an ELISA plate previously coated with a specific antibody recognizing the substrate of the enzymatic phosphorylation reaction. Non-substrate components of the cell lysate are washed away and the amount of phosphorylation on the substrate is detected with an antibody specifically recognizing phosphotyrosine compared with control cells that were not contacted with a test compound. HER-2 ELISA […] EGF Receptor-HER2 Chimeric Receptor Assay in Whole Cells. HER2 kinase activity in whole EGFR-NIH3T3 cells are measured as described below: Materials and Reagents. The following materials and reagents can be used to conduct the assay: a. EGF: stock concentration: 16.5 ILM; EGF 201, TOYOBO, Co., Ltd. Japan. b. 05-101 (UBI) (a monoclonal antibody recognizing an EGFR extracellular domain). c. Anti-phosphotyrosine antibody (anti-Ptyr) (polyclonal)(see, Fendley, et al., supra). d. Detection antibody: Goat anti-rabbit lgG horse radish peroxidase conjugate, TAGO, Inc., Burlingame, Calif. e. TBST buffer: [table] f. HNTG 5×stock: [table] g. ABTS stock: [table] h. Stock reagents of: [table] Procedure. The following protocol is used: A. Pre-coat ELISA Plate […] Coat ELISA plates (Corning, 96 well, Cat. #25805-96) with 05-101 antibody at 0.5 µg per well in PBS, 100 μL final volume/well, and store overnight at 4° C. Coated plates are good for up to 10 days when stored at 4° C. 2. On day of use, remove coating buffer and replace with 100 μL blocking buffer (5% Carnation Instant Non-Fat Dry Milk in PBS). Incubate the plate, shaking, at room temperature (about 23° C. to 25° C.) for 30 minutes. Just prior to use, remove blocking buffer and wash plate 4 times with TBST buffer. B. Seeding Cells […] An NIH3T3 cell line overexpressing a chimeric receptor containing the EGFR extracellular domain and intracellular HER2 kinase domain can be used for this assay. 2. Choose dishes having 80-90% confluence for the experiment. […]

Sequence of PDGFR (P09619 33-1106): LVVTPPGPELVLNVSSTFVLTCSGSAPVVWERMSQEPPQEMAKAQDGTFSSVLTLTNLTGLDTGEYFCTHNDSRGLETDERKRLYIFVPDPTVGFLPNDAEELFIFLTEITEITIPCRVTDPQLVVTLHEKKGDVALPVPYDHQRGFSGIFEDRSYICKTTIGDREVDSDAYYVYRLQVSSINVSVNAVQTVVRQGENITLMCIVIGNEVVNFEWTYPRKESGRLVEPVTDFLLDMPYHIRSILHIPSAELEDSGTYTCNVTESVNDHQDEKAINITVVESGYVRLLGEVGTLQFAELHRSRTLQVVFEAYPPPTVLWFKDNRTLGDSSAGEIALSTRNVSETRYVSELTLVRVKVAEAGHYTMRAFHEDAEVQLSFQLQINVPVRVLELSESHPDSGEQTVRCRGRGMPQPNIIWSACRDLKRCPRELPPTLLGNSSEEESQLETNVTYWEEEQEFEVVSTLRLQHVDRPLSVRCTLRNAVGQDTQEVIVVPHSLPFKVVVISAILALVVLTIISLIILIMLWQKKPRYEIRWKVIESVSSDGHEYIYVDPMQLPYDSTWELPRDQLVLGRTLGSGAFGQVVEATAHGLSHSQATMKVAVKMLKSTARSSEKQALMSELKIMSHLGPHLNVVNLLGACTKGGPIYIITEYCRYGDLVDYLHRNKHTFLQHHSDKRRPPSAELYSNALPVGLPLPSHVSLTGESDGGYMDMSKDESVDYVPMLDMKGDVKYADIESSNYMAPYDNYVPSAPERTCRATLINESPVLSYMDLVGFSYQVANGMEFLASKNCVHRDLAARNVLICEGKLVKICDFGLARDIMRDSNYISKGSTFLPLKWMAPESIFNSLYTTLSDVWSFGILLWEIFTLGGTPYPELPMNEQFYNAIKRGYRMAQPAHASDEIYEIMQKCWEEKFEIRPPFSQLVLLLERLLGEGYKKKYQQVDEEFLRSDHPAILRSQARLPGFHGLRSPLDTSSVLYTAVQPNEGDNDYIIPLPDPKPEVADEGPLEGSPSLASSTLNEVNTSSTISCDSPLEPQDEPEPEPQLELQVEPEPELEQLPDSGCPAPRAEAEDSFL

Compound: CCOC(=O)c1[nH]c(C=C2C(=O)Nc3ccccc32)c(C(C)=O)c1C [3-(4-acetyl-2-ethoxycarbonyl-3-methylpyrrol-5-methylidenyl)-2-indolinone]
- IC50 (PDGFR): > 10 µM

Compound: CCOC(=O)c1c[nH]c(C=C2C(=O)Nc3ccccc32)c1C [3-(4-ethoxycarbonyl-3-methylpyrrol-2-methylidenyl)-2-indolinone]
- IC50 (HER2 Kinase): > 100 µM
- IC50 (PDGFR): > 100 µM

Compound: CCOC(=O)CCc1c(C(=O)OCC)[nH]c(C=C2C(=O)Nc3ccccc32)c1CC(=O)OCC [3-[2-ethoxycarbonyl-3-(2-ethoxycarbonylethyl)-4-ethoxycarbonylmethyl)pyrrol-5-methylidenyl)-2-indolinone]
- IC50 (HER2 Kinase): > 10 µM
- IC50 (PDGFR): > 10 µM

Compound: COC(=O)CCc1c[nH]c(C=C2C(=O)Nc3cc(OC)c(OC)cc32)c1C [3-[4-(2-methoxycarbonylethyl)-3-methylpyrrol-2-methylidenyl]-5,6-dimethoxy-2-indolinone]
- IC50 (HER2 Kinase): > 50 µM
- IC50 (PDGFR): 22.3 µM
